Measured values from patent US20220267298A1 (priority 2019, published 2022).

Each compound was assayed against T1, GRK2 (Homo sapiens, UniProt P25098) (assay: biochemical). Conditions: GRK2 IC50 (μM), 10 nM GRK2; 10 uM ATP.
T1 sequence (P25098 1-689): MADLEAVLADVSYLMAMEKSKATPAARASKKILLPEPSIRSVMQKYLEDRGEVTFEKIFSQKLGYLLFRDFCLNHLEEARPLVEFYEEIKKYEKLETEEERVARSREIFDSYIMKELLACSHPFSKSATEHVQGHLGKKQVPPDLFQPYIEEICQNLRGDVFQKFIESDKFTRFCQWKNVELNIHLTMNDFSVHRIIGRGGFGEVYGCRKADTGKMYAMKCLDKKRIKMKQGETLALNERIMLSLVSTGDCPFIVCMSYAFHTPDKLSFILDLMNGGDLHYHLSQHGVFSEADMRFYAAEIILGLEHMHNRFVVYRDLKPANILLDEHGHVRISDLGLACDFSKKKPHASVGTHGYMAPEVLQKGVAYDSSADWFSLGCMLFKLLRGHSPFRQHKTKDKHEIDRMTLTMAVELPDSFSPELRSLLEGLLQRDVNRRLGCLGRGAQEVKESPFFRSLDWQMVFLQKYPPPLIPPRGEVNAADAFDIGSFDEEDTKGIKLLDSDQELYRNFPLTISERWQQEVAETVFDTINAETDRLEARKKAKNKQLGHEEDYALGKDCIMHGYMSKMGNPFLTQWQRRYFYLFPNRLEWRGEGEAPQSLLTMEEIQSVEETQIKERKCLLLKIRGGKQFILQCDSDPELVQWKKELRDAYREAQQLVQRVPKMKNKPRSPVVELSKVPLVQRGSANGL
Protocol: Positive and negative control wells received an equal volume of DMSO. The final DMSO concentration in the assay is 1%.
The plate was placed in centrifuge equipped with a spin-bucket rotor and spun for 1 min at 1000 rpm.
GRK2 enzymatic reactions were initiated with the addition of 2 μL/well of 50 nM GRK2 in assay buffer. Plates were centrifuged for 1 min at 1000 rpm. For negative control wells, the order of reagent addition was reversed: 10 μL/well ADP detection mix (see below) was added first, followed by the addition of 2 μL/well of the GRK2 solution. Reaction mixtures were incubated at ambient temperature for 2 hours.
Following incubation, the reactions were quenched with 10 μL/well of the Transcreener ADP detection mix. […] The plates were then centrifuged for 1 min at 1000 rpm.
Fluorescence polarization values of the reaction mixtures were read on a Safire II plate reader after a 60 min incubation at ambient temperature. Excitation wavelength=590 nm; emission wavelength=650 nm.
The fluorescence polarization data were converted to % activity as follows:
% activity=(sample−NC)/(PC−NC)*100
where NC is the mean of negative control (ADP detection mix added prior to GRK2 addition), and PC is the mean of positive control (GRK2 reaction without inhibitor). IC50 values are determined from a 4-parameter fit, using the following equation:
Y=Bottom+(Top−Bottom)/(1+10^((Log IC50-X)*Hill slope)),
where X=log10 of the compound concentration.
For CCOc1cccc(C(CS(C)(=O)=O)n2cnc3ccc(-c4cn[nH]c4)cc3c2=O)c1 (stereo not shown) [Compound 15, 3-(1-(3-Ethoxyphenyl)-2-(methylsulfonyl)ethyl)-6-(1H-pyrazol-4-yl)quinazolin-4(3H)-one], the IC50 was 5.59 µM.
With CC(c1cccc(OCCS(C)(=O)=O)c1)n1cnc2ccc(-c3cn[nH]c3)cc2c1=O (stereo not shown) [Compound 17, 3-(1-(3-(2-(Methylsulfonyl)ethoxy)phenyl)ethyl)-6-(1H-pyrazol-4-yl)quinazolin-4(3H)-one] the IC50 was 1.31 µM.
COc1cccc(C(C)n2cnc3ccc(-c4c[nH]nc4N)cc3c2=O)c1 (stereo not shown) [Compound 19, 6-(3-Amino-1H-pyrazol-4-yl)-3-[1-(3-methoxyphenyl)ethyl]quinazolin-4-one] showed an IC50 of over 50 µM.
For COc1cccc(Cn2c(C)nc3ccc(-c4cn[nH]c4)cc3c2=O)c1 [Compound 20, 3-[(3-Methoxyphenyl)methyl]-2-methyl-6-(1H-pyrazol-4-yl)quinazolin-4-one], the IC50 was 0.014 µM.
COc1cccc(Cn2c(C(F)(F)F)nc3ccc(-c4cn[nH]c4)cc3c2=O)c1 [Compound 21, 3-[(3-Methoxyphenyl)methyl]-6-(1H-pyrazol-4-yl)-2-(trifluoromethyl)quinazolin-4-one] was tested, and the IC50 was 0.425 µM.
COc1cccc(C(C2CCS(=O)(=O)CC2)n2cnc3ccc(-c4cn[nH]c4)cc3c2=O)c1 (stereo not shown) [Compound 22, 3-((1,1-Dioxidotetrahydro-2H-thiopyran-4-yl)(3-methoxyphenyl)methyl)-6-(1H-pyrazol-4-yl)quinazolin-4(3H)-one] showed an IC50 of 4.11 µM.
[2H]C([2H])(Oc1cccc([C@@H](C)n2cnc3ccc(-c4cn[nH]c4)cc3c2=O)c1)C(=O)NC1CC1 [Compound 23, N-Cyclopropyl-2,2-dideuterio-2-[3-[(1R)-1-[4-oxo-6-(1H-pyrazol-4-yl)quinazolin-3-yl]ethyl]phenoxy]acetamide] was tested, and the IC50 was 0.035 µM.
CC(c1cccc(C(=O)NC2CN(C)C2)c1)n1cnc2ccc(-c3cn[nH]c3)cc2c1=O (stereo not shown) [Compound 24, N-(1-Methylazetidin-3-yl)-3-[1-[4-oxo-6-(1H-pyrazol-4-yl)quinazolin-3-yl]ethyl]benzamide] gave an IC50 of 0.096 µM.
In the case of Cc1nc2ccc(-c3cn[nH]c3)cc2c(=O)n1Cc1cccc(OC2CN(C)C2)c1 [Compound 25, 2-Methyl-3-(3-((1-methylazetidin-3-yl)oxy)benzyl)-6-(1H-pyrazol-4-yl)quinazolin-4(3H)-one], the IC50 was 2.34 µM.
[2H]C([2H])(Oc1cccc([C@@H](C)n2cnc3ccc(-c4cn[nH]c4)cc3c2=O)c1)C(=O)O [Compound 26, 2,2-Dideuterio-2-[3-[(1R)-1-[4-oxo-6-(1H-pyrazol-4-yl)quinazolin-3-yl]ethyl]phenoxy]acetic Acid] showed an IC50 of 0.143 µM.
Compound O=C(O)COc1cccc(Cn2cnc3ccc(-c4cn[nH]c4)cc3c2=O)c1 [Compound 27, 2-[3-[[4-Oxo-6-(1H-pyrazol-4-yl)quinazolin-3-yl]methyl]phenoxy]acetic acid] has an IC50 of 0.088 µM.
O=c1c2cc(-c3cn[nH]c3)ccc2ncn1Cc1cccc(-c2ncco2)c1 [Compound 28, 3-(3-(Oxazol-2-yl)benzyl)-6-(1H-pyrazol-4-yl)quinazolin-4(3H)-one] was tested, and the IC50 was 0.446 µM.
Work on COc1cccc(C(CCN(C)C)n2cnc3ccc(-c4cn[nH]c4)cc3c2=O)c1 (stereo not shown) [Compound 29, 3-(3-(Dimethylamino)-1-(3-methoxyphenyl)propyl)-6-(1H-pyrazol-4-yl)quinazolin-4(3H)-one] yielded an IC50 of 0.054 µM.
Compound CC(c1cccc(O)c1)n1cnc2ccc(-c3cn[nH]c3)cc2c1=O (stereo not shown) [Compound 31, 3-[1-(3-Hydroxyphenyl)ethyl]-6-(1H-pyrazol-4-yl)quinazolin-4-one] has an IC50 of 0.008 µM.
COc1cccc(C(CCO)n2cnc3ccc(-c4cn[nH]c4)cc3c2=O)c1 (stereo not shown) [Compound 32, 3-(3-Hydroxy-1-(3-methoxyphenyl)propyl)-6-(1H-pyrazol-4-yl)quinazolin-4(3H)-one] gave an IC50 of 0.157 µM.
CC(c1cccc(NS(C)(=O)=O)c1)n1cnc2ccc(-c3cn[nH]c3)cc2c1=O (stereo not shown) [Compound 33, N-[3-[1-[4-Oxo-6-(1H-pyrazol-4-yl)quinazolin-3-yl]ethyl]phenyl]methanesulfonamide] gave an IC50 of 0.033 µM.
